In patent publication US20230382863A1, “MEK INHIBITORS AND USES THEREOF” (Ikena Oncology, Inc., priority 2022, published 2023):

How the values were obtained:
[1] = tested on: Phosphorylation of MEK1/2 in AsPC1 cells; test: 4 hour pMEK1/2 MSD Assay; assay type: cell-based; conditions: Homo sapiens; AsPC1, 4 hours; read-out: pMEK IC50
Protocol: AsPC1 cells were seeded at 10,000 cells/well overnight in 96-well plates, then treated with a 12-point dose response of compounds (Starting dose of 1000 nM and 3-fold dilution) for 4 hours. AsPC1 cells are a K-Ras mutant (G12D) pancreatic cancer cell line. Phosphorylation of MEK1/2 on residues Ser217 and Ser221 were detected using a MesoScale Discovery (MSD) assay (MSD Cat #K15129D-2). MEK1/2 phosphorylation levels were normalized to total MEK1/2 protein detected in each well on the same MSD plate. IC50 values were determined by fitting a variable slope, four parameters curve to the compound concentration to normalized Phospho-MEK1/2 relationship.

[2] = Cassette pharmacokinetics studies in mice; assay type: in vivo; conditions: male, Balb/c, plasma, Mouse
Method in brief: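 Male Balb/c mice (3 per route) received cassette doses in 5% DMSO/95% PEG400 at 2 mg/kg IV (1 mg/kg where IV*) or 5 mg/kg PO. Plasma sampled to 24 h, acetonitrile-precipitated with internal standard, quantified by HPLC/MS/MS against 0.5-1,000 ng/mL standards.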

[3] = Pharmacokinetics in rat; assay type: in vivo; conditions: plasma, IV, 1 mg/kg
[4] = tested on: NCI-H2122 xenograft (KRAS G12C); test: In vivo efficacy, NCI-H2122 xenograft model; set-up: species or system mouse; conditions: 3 mg/kg QD, Day 31
Protocol: (§1) The antitumor activity of exemplary MEK inhibitor compounds is evaluated in vivo using human cell line derived xenografts (CDX) grown in immunodeficient mice. For these studies, AsPC1 (pancreatic cell line with KRAS G12D mutation), NCI-H2122 (lung cell line with KRAS G12C mutation), and 5637 (bladder cell line with CRAF amplification) models are used. In addition, HCT-116 (colorectal cell line with KRAS G13D mutation), SKM-1 (AML cell line with KRAS K117N mutation), and OCI-AML-3 (AML cell line with NRAS Q61L mutation) models are used. The tumor cell lines (AsPC-1, NCI-H2122, 5637, and HCT-116 cells) are maintained in vitro as monolayer culture in medium at 37° C. in an atmosphere of 5% CO2 in air. The tumor cell lines (SKM-1 and OCI-AML-3 cells) are maintained in vitro as a suspension in medium at 37° C. in an atmosphere of 5% CO2 in air. The tumor cells are routinely sub-cultured before confluence by trypsin-EDTA treatment, not to exceed 4-5 passages. The cells growing in an exponential growth phase are harvested for tumor inoculation. AsPC1, NCI-H2122, and OCI-AML-3 tumors are implanted into Balb/c nude mice. HCT-116 tumors are implanted into Nu/Nu mice. 5637 and SKM-1 tumors are implanted into NOG mice. […] Throughout the study, mouse body weight and tumor volume are recorded. The measurement of tumor size is conducted twice weekly with a caliper and recorded. […]

[5] = tested on: 5637 xenograft (CRAF amplification); test: In vivo efficacy, 5637 xenograft model; set-up: species or system mouse; conditions: 5637 model, 3 mg/kg QD, Day 21
Protocol: as §1

[6] = tested on: OCI-AML-3 xenograft (NRAS Q61L); test: In vivo efficacy, OCI-AML-3 xenograft model; set-up: species or system mouse; conditions: OCI-AML-3 model, Day 15
Protocol: The antitumor activity of exemplary MEK inhibitor compounds is evaluated in vivo using human cell line derived xenografts (CDX) grown in immunodeficient mice. For these studies, AsPC1 (pancreatic cell line with KRAS G12D mutation), NCI-H2122 (lung cell line with KRAS G12C mutation), and 5637 (bladder cell line with CRAF amplification) models are used. In addition, HCT-116 (colorectal cell line with KRAS G13D mutation), SKM-1 (AML cell line with KRAS K117N mutation), and OCI-AML-3 (AML cell line with NRAS Q61L mutation) models are used. The tumor cell lines (AsPC-1, NCI-H2122, 5637, and HCT-116 cells) are maintained in vitro as monolayer culture in medium at 37° C. in an atmosphere of 5% CO2 in air. The tumor cell lines (SKM-1 and OCI-AML-3 cells) are maintained in vitro as a suspension in medium at 37° C. in an atmosphere of 5% CO2 in air. The tumor cells are routinely sub-cultured before confluence by trypsin-EDTA treatment, not to exceed 4-5 passages. The cells growing in an exponential growth phase are harvested for tumor inoculation. AsPC1, NCI-H2122, and OCI-AML-3 tumors are implanted into Balb/c nude mice. HCT-116 tumors are implanted into Nu/Nu mice. 5637 and SKM-1 tumors are implanted into NOG mice. Each mouse is inoculated subcutaneously on the right flank with tumor cells in a 1:1 mixture with matrigel. Tumors are allowed to grow to approximately 150-200 mm^3. At this time, mice are assigned to groups such that the mean tumor volume is the same for each treatment group. The MEK inhibitor compound treatments are administrated to the tumor-bearing mice via oral gavage. Throughout the study, mouse body weight and tumor volume are recorded. The measurement of tumor size is conducted twice weekly with a caliper and recorded. The tumor volume (mm^3) is estimated using the formula: TV=a×b^2/2, where “a” and “b” are long and short diameters of a tumor, respectively.

[7] = tested on: ARAF in complex with MEK; test: ARAF-MEK stabilization in cells (MEK immunoprecipitation, Western); assay type: cell-based; conditions: HCT-116 and NCI-H1755 cells, 3 nM, 4 hours; stabilization = >1.5-fold over vehicle
Source text: The stabilization of ARAF, BRAF and CRAF in complex with MEK in MEK immunoprecipitates isolated from cellular lysates. For these studies, HCT-116 (colorectal cell line with KRAS G13D mutation), SKMEL-2 (melanoma cell line with NRAS Q61K mutation), HT-29 (colorectal cell line with BRAF Class I mutation), NCI-H1755 (lung cancer cell line with BRAF Class II mutation), and NCI-H1666 (lung cancer cell line with BRAF Class III mutation) models are used. The tumor cell lines are maintained in vitro as monolayer culture in medium at 37° C. in an atmosphere of 5% CO2 in air. Cell lines are treated with exemplary MEK inhibitors at a concentration of 3 nM for 4 hours. Cells are lysed and MEK is immunoprecipitated from the lysates overnight. Denatured immunoprecipitates are run on SDS-PAGE, transferred to nitrocellulose membranes and associated ARAF, BRAF, or CRAF are detected by Western analysis. Stabilization was defined as >1.5-fold induction of RAF-MEK interaction over vehicle control.

CNS(=O)(=O)Nc1cccc(Oc2c(C(=O)NC3CC3)c(Nc3ccc(I)cc3F)n(C)c(=O)c2C)c1Cl [Compound I-2, 4-(2-chloro-3-((N-methylsulfamoyl)amino)phenoxy)-N-cyclopropyl-2-((2-fluoro-4-iodophenyl)amino)-1,5-dimethyl-6-oxo-1,6-dihydropyridine-3-carboxamide]
IC50 [1]: < 100 nM | AUC(0-inf) ([2]; IV, 2 mg/kg): 1950 ng·h/mL | AUC(0-t) ([2]; IV, 2 mg/kg): 1940 ng·h/mL | clearance ([2]; IV, 2 mg/kg): 17.2 mL/min/kg | half-life ([2]; IV, 2 mg/kg): 1.04 h | Vd ([2]; IV, 2 mg/kg, read-out: Vdss): 1.3 L/kg | AUC(0-inf) ([2]; PO, 5 mg/kg): 4040 ng·h/mL | AUC(0-t) ([2]; PO, 5 mg/kg): 3960 ng·h/mL | Cmax ([2]; PO, 5 mg/kg): 1660 ng/mL | Tmax ([2]; PO, 5 mg/kg): 0.5 h | half-life ([2]; PO, 5 mg/kg): 7.99 h | AUC(0-inf) [3]: 1080 ng·h/mL | AUC(0-t) [3]: 1070 ng·h/mL | clearance [3]: 16.6 mL/min/kg | half-life [3]: 4.22 h | Vd ([3]; read-out: Vdss): 2.2 L/kg | average body weight loss [4]: 1.5% | percent TGI [4]: 104% | average body weight loss [5]: 6.8% | percent TGI [5]: 111% | average body weight loss ([6]; 1 mg/kg QD): 2.9% | percent TGI ([6]; 1 mg/kg QD): 94.8% | average body weight loss ([6]; 3 mg/kg QD): 7.8% | percent TGI ([6]; 3 mg/kg QD): 98.6% | percent TGI ([6]; 6 mg/kg QOD): 95.2% | weight gain ([6]; 6 mg/kg QOD): 3.3% | association of ARAF with MEK [7]: enhanced
